SMILES strings stand for the structures. Calls of active or inactive are those of the source. The rule behind the calls is not given here.

Drawing on ChEMBL document CHEMBL1141854, “A new 1,2-dihydroisoquinoline from the sponge petrosia similis” (J Nat Prod, 1999), this text covers zone of inhibition and Activity for 2 compounds.

One data set concerns Bacillus subtilis. Put plainly: Antibacterial activity against Bacillus subtilis at 100 ug/disk. In kind it is functional.
For another data set, the system named is Staphylococcus aureus. Put plainly: Antibacterial activity against Staphylococcus aureus at 100 ug/disk. In kind it is functional.
A further data set deals with Escherichia coli. The experiment in a line: Antibacterial activity against sEscherichia coli at 100 ug/disk. It counts as functional.
For another data set, the system named is Artemia. Put plainly: Toxicity against brine shrimp. It counts as organism-based. Conditions: in vivo.
Another data set concerns Klebsiella pneumoniae. Put plainly: Antibacterial activity against Klebsiella pneumoniae at 100 ug/disk. In kind it is functional.

With `CC(=O)OCc1nccc2c1C(=O)C(O)=C(C)C2=O`, the zone of inhibition at 100 µg/disc in the data set on Bacillus subtilis (read-out: IZ) was 16 mm; with Staphylococcus aureus (read-out: IZ), 14 mm; in the data set with Escherichia coli (read-out: IZ), 12 mm; with Klebsiella pneumoniae (read-out: IZ), 12 mm. In addition, the Activity entry in the data set with Artemia is given as “Non-toxic”.

In the case of `COc1cc(O)c2c(c1)C(COC(C)=O)N(C=O)C=C2` (stereo not given), the result in the data set with Bacillus subtilis, in the data set on Staphylococcus aureus, in the data set on Escherichia coli and with Klebsiella pneumoniae was inactive. For the same compound, in the data set with Artemia, the Activity result is recorded as “Non-toxic”.
